This note sets out measurements from patent US20150056702A1, “METHOD AND KIT FOR CULTURING STEM CELLS” (China Medical University, priority 2013, published 2015).

What all share (format): cell-based, mouse
Experiment [1] has as its system iPS cells. In words: Embryoid body formation and differentiation of the generated iPS cells. As to conditions: iPS cells (T+P), BP10 medium, Tuj1, α-SMA, Gata4 staining. How it is done:
(§1) An experimental group medium (BP10) was used to culture ES cells with an initial density of 1×10^4 per well in a 6-well culture dish. The ES cells were passaged 3 times and incubated for another 2 to 3 days in the Ultra Low Cluster Plate (Costar) containing the embryoid body formation medium [DMEM+20% FBS+β-mercaptoethanol (1 mM)+1% L-glutamine+1% NEAA], and then the embryoid body formation was observed. The embryoid bodies were placed into another 24-well culture dish (5 to 6 embryoid bodies/well) and incubated for another 3 days. Next, immunofluorescence staining was conducted to detect cells with an anti-Tuj1 antibody (ectoderm marker), an anti-α-SMA antibody (mesoderm marker) and an anti-Gata4 antibody (endoderm marker).
In addition, the iPS cells (T+P) were cultured by the steps shown in Example 7 to observe the embryoid body formation and differentiation.

In the next experiment the test system is Pou5fl-GFP MEF cells. In words: Examination of iPS cell generation efficiency (GFP fluorescence). The source says:
The MEF cells were isolated from Pou5fl-GFP transgenic mice (The Jackson lab). The pcDNA-Oct4, pcDNA-Sox2, pcDNA-c-Myc, and pcDNA-Klf4 plasmids were introduced once every two days (4 times total) into the Pou5fl-GFP MEF cells to generate iPS cells through co-transfection. The medium was changed to BP-containing medium 6 days post-transfection, and the medium was exchanged everyday. On day 9, the MEF cells were passaged onto feeder cells provided by Example 1 and the GFP-positive clones were observed. Finally, the GFP fluorescent signals of the iPS cells were detected by a fluorescent microscope. The fluorescent signal intensity is directly proportional to the cell generation efficiency.
This example includes two groups, BP (T+P) and BP (T), wherein BP (T+P) refers to the group cultured with the experimental group medium (BP10) post-transfection and after placing onto feeder cells, and BP (T) refers to the group cultured with the experimental group medium (BP10) post-transfection.

A further experiment has as its system ES cells. Nature of the experiment: Embryoid body formation and differentiation of ES cells. As to conditions: BP10 medium, ES cells passaged 3 times, Tuj1, α-SMA, Gata4 staining. How it is done:
The embryoid body formation and differentiation were also observed by immunofluorescence staining to observe the effect of BP on maintaining the pluripotency of ES cells.
as §1

The subject of experiment [2] is iPS cells. In words: AP staining and immunofluorescence staining of the generated iPS cells. The conditions noted are these: experimental group (T+P), BP10 medium. How it is done: The AP activity of the obtained iPS cells was determined by AP staining. The expression levels of Nanog and SSEA1 as well as the embryoid body formation and differentiation were observed by immunofluorescence staining.

As to `CCCC=C1OC(=O)c2ccccc21` [BP, n-butylidenephthalide], the “embryoid body formation and differentiation of the iPS cells” value in the experiment on iPS cells [1] was “can differentiate into three germ layer cells”. Also, the “GFP fluorescence intensity in the iPS cells formed” value in the experiment on Pou5fl-GFP MEF cells (BP (T): BP10 medium post-transfection, Day 7) came out at 20.5; in the experiment with Pou5fl-GFP MEF cells (BP (T): BP10 medium post-transfection, Day 14), 70.5; in the experiment on Pou5fl-GFP MEF cells (BP (T): BP10 medium post-transfection, Day 20), 65.5; with Pou5fl-GFP MEF cells (BP (T+P): BP10 medium post-transfection and after placing onto feeder cells, Day 7) it was 27.5; with Pou5fl-GFP MEF cells (BP (T+P): BP10 medium post-transfection and after placing onto feeder cells, Day 14), 82; in the experiment with Pou5fl-GFP MEF cells (BP (T+P): BP10 medium post-transfection and after placing onto feeder cells, Day 20) it was 92.5. In addition, the “GFP fluorescent signals (iPS cell generation efficiency)” value in the experiment with Pou5fl-GFP MEF cells (BP-containing iPS cell medium vs control group (without BP), result in words) is “higher GFP fluorescent signals”. Moreover, the “embryoid body formation and differentiation” value in the experiment on ES cells is “form an embryoid body and further differentiate into all three germ layer cells”. The “expression levels of AP, Nanog and SSEA1 in the obtained iPS cells” value with iPS cells [2] was “higher expression levels of AP, Nanog, and SSEA1”.
